Several values for one entry are separate records, joined by “and”; a condition that tells them apart may be missing. Equal values may be shown once. Read-outs that look alike come from different tables or passages of the source.
Experiment: Mouse pharmacokinetics in CD-1 mice (blood, kidney, liver, lung)
Assay type: in vivo
Procedure: For the PK study, a total of 42 male CD-1 mice weighing ~20-35 g were acquired from Lingchang/Vital River Laboratory Animal Co., Ltd. (Shanghai/Beijing, P.R. China) and divided into 2 treatment groups. […] was dosed with one low dose (1 mg/kg) and one high dose group (20 mg/kg). For the low-dose groups, nine animals were required for organ quantification with termination at 24 hours. For the high-dose groups, 12 animals were required for organ quantification with termination at 48 hours. The animal was administered either 1 mg/kg or 20 mg/kg of formulation solution (10% HP-β-CD in acetate buffer at pH 4.0) by IV bolus through the left lateral tail vein injection. […] Blood samples were placed on wet ice, mixed, then frozen and stored in a freezer set to -60 °C or lower until analysis. After the blood samples were collected at the terminal time points, the animals were sacrificed, and the liver, lung and kidney were harvested. The tissues were rinsed in cold water and then blotted on filter papers, weighed and homogenized using pre-cooled water at the ratio of 1:4. The tissue homogenate samples were kept at -70 °C until analysis. […] Working standard solutions were spiked into 25 μL of blank matrix on the sample plate. […] The supernatant (20 μL) was transferred into the MS injection plate, then diluted with water before injection for LC-MS/MS analysis. The concentrations of […] were quantified by an LC-MS/MS method. The LC-MS/MS system was a Waters Acquity UPLC System (Milford, MA) coupled to a Sciex Triple Quad 6500 Plus mass spectrometer (AB Sciex, Foster City, CA). The aqueous mobile phase for the analysis was 0.1% formic acid and 2 mM ammonium formate in water/ACN (v:v, 95:5) (A), and the organic mobile phase was 0.1% formic acid and 2 mM ammonium formate in ACN/water (v:v, 95:5) (B). […] Column temperature was set at 50 °C. […] The flow rate was set at 0.7 mL/min. […] The lower limit of quantitation in all matrices was 5.1 ng/mL. The mean time concentration profile was generated for each group, and an overall AUC was then calculated with these sparse samples of rats and mice. […] The following parameters were estimated whenever possible: C0, Back-extrapolated concentration at time 0; Cmax, Maximum observed concentration; Tmax, Time of maximum observed concentration; AUC0-t, Area under the concentration-time curve from hour 0 to the last measurable concentration, estimated by the linear trapezoidal rule; AUC0-336, Area under the concentration-time curve from hour 0 to hour 336, estimated by the linear trapezoidal rule; DN AUC0-336, Dose normalized AUC0-336, calculated as AUC0-336/dose level; […] AUC0-∞ = AUC0-t + Ct/λz, where Ct is the last measurable concentration and λz is the elimination rate constant; t1/2, Elimination half-life, determined by ln(2)/λz; CL, Clearance, calculated as dose/AUC0-inf; Vd, Volume of distribution based on the terminal phase, calculated as: dose/(λz × AUC0-∞) Nominal doses and sampling times were used. […] Embedded zeros were excluded from kinetic analysis.

Cc1ncsc1-c1ccc(C(C)NC(=O)C2CC(O)CN2C(=O)C(c2cc(N3CCC(CN4CCC(OC5CC(Oc6cc(N7C8CCC7CN(c7cc(-c9ccccc9O)nnc7N)C8)ccn6)C5)CC4)CC3)no2)C(C)C)cc1 (stereo not shown) [A947]
concentration at 0.083 h (Blood, 0.083 h, 1 mg/kg IV, individual animals, read-out: Concentration (µM) from 1 mg/kg Dosing Blood): 0.351 µM and 0.406 µM | concentration at 8 h (Blood, 0.083 h, 20 mg/kg IV, individual animals, read-out: Concentration (µM) from 20 mg/kg Dosing Blood): 11.332 µM and 8.845 µM | concentration at 0.083 h (Blood, 0.25 h, 1 mg/kg IV, individual animals, read-out: Concentration (µM) from 1 mg/kg Dosing Blood): 0.084 µM and 0.113 µM | concentration at 8 h (Blood, 0.25 h, 20 mg/kg IV, individual animals, read-out: Concentration (µM) from 20 mg/kg Dosing Blood): 3.265 µM and 3.4 µM | concentration at 0.083 h (Blood, 0.5 h, 1 mg/kg IV, individual animals, read-out: Concentration (µM) from 1 mg/kg Dosing Blood): 0.044 µM and 0.066 µM | concentration at 8 h (Blood, 0.5 h, 20 mg/kg IV, individual animals, read-out: Concentration (µM) from 20 mg/kg Dosing Blood): 1.604 µM and 1.652 µM | concentration at 0.083 h (Blood, 1 h, 1 mg/kg IV, individual animals, read-out: Concentration (µM) from 1 mg/kg Dosing Blood): 0.02 µM and 0.026 µM | concentration at 8 h (Blood, 1 h, 20 mg/kg IV, individual animals, read-out: Concentration (µM) from 20 mg/kg Dosing Blood): 0.769 µM and 0.821 µM | concentration at 0.083 h (Blood, 2 h, 1 mg/kg IV, individual animals, read-out: Concentration (µM) from 1 mg/kg Dosing Blood): 0.009 µM and 0.013 µM | concentration at 8 h (Blood, 2 h, 20 mg/kg IV, individual animals, read-out: Concentration (µM) from 20 mg/kg Dosing Blood): 0.221 µM and 0.24 µM | Concentration (µM) from 1 mg/kg Dosing Blood (Blood, 4 h, 1 mg/kg IV, individual animals, BLOQ <5.1 ng/mL): BLOQ * | concentration at 0.083 h (Blood, 4 h, 1 mg/kg IV, individual animals, BLOQ <5.1 ng/mL, read-out: Concentration (µM) from 1 mg/kg Dosing Blood): 0.006 µM | concentration at 8 h (Blood, 4 h, 20 mg/kg IV, individual animals, read-out: Concentration (µM) from 20 mg/kg Dosing Blood): 0.212 µM and 0.306 µM and 0.093 µM and 0.117 µM and 0.098 µM and 0.1 µM | Concentration (µM) from 1 mg/kg Dosing Blood (Blood, 8 h, 1 mg/kg IV, individual animals, BLOQ <5.1 ng/mL): BLOQ * | concentration at 8 h (Blood, 8 h, 20 mg/kg IV, individual animals, read-out: Concentration (µM) from 20 mg/kg Dosing Blood): 0.067 µM and 0.056 µM and 0.036 µM and 0.037 µM | Concentration (µM) from 1 mg/kg Dosing Blood (Blood, 12 h, 1 mg/kg IV, individual animals, BLOQ <5.1 ng/mL): BLOQ * | concentration at 8 h (Blood, 12 h, 20 mg/kg IV, individual animals, read-out: Concentration (µM) from 20 mg/kg Dosing Blood): 0.015 µM and 0.017 µM | Concentration (µM) from 1 mg/kg Dosing Blood (Blood, 24 h, 1 mg/kg IV, individual animals, BLOQ <5.1 ng/mL): BLOQ * | Concentration (µM) from 20 mg/kg Dosing Blood (Blood, 24 h, 20 mg/kg IV, individual animals, BLOQ <5.1 ng/mL): BLOQ * | Concentration (µM) from 20 mg/kg Dosing Blood (Blood, 48 h, 20 mg/kg IV, individual animals, BLOQ <5.1 ng/mL): BLOQ * | concentration at 24 h (Kidney, 4 h, 1 mg/kg IV, individual animals, read-out: Concentration (µM) from 1 mg/kg Dosing Kidney): 0.541 µM and 0.391 µM | concentration at 8 h (Kidney, 4 h, 20 mg/kg IV, individual animals, read-out: Concentration (µM) from 20 mg/kg Dosing Kidney): 14.213 µM and 10.852 µM | concentration at 24 h (Kidney, 8 h, 1 mg/kg IV, individual animals, read-out: Concentration (µM) from 1 mg/kg Dosing Kidney): 0.341 µM and 0.338 µM | concentration at 8 h (Kidney, 8 h, 20 mg/kg IV, individual animals, read-out: Concentration (µM) from 20 mg/kg Dosing Kidney): 11.428 µM and 7.712 µM | concentration at 24 h (Kidney, 24 h, 1 mg/kg IV, individual animals, read-out: Concentration (µM) from 1 mg/kg Dosing Kidney): 0.025 µM and 0.027 µM | concentration at 8 h (Kidney, 24 h, 20 mg/kg IV, individual animals, read-out: Concentration (µM) from 20 mg/kg Dosing Kidney): 0.295 µM and 0.508 µM | concentration at 8 h (Kidney, 48 h, 20 mg/kg IV, individual animals, read-out: Concentration (µM) from 20 mg/kg Dosing Kidney): 0.083 µM and 0.066 µM | concentration at 24 h (Liver, 4 h, 1 mg/kg IV, individual animals, read-out: Concentration (µM) from 1 mg/kg Dosing Liver): 0.069 µM and 0.098 µM | concentration at 8 h (Liver, 4 h, 20 mg/kg IV, individual animals, read-out: Concentration (µM) from 20 mg/kg Dosing Liver): 66.456 µM and 51.09 µM and 27.754 µM | concentration at 24 h (Liver, 8 h, 1 mg/kg IV, individual animals, read-out: Concentration (µM) from 1 mg/kg Dosing Liver): 0.039 µM | concentration at 8 h (Liver, 8 h, 20 mg/kg IV, individual animals, read-out: Concentration (µM) from 20 mg/kg Dosing Liver): 18.535 µM and 24.009 µM | Concentration (µM) from 1 mg/kg Dosing Liver (Liver, 24 h, 1 mg/kg IV, individual animals, BLOQ <5.1 ng/mL): BLOQ * | concentration at 8 h (Liver, 24 h, 20 mg/kg IV, individual animals, read-out: Concentration (µM) from 20 mg/kg Dosing Liver): 8.297 µM and 9.7 µM | concentration at 8 h (Liver, 48 h, 20 mg/kg IV, individual animals, read-out: Concentration (µM) from 20 mg/kg Dosing Liver): 1.133 µM and 2.43 µM and 2.132 µM | concentration at 24 h (Lung, 4 h, 1 mg/kg IV, individual animals, read-out: Concentration (µM) from 1 mg/kg Dosing Lung): 0.085 µM and 0.099 µM | concentration at 8 h (Lung, 4 h, 20 mg/kg IV, individual animals, read-out: Concentration (µM) from 20 mg/kg Dosing Lung): 6.463 µM and 5.695 µM | concentration at 24 h (Lung, 8 h, 1 mg/kg IV, individual animals, read-out: Concentration (µM) from 1 mg/kg Dosing Lung): 0.066 µM and 0.071 µM | concentration at 8 h (Lung, 8 h, 20 mg/kg IV, individual animals, read-out: Concentration (µM) from 20 mg/kg Dosing Lung): 2.286 µM and 3.054 µM | concentration at 24 h (Lung, 24 h, 1 mg/kg IV, individual animals, read-out: Concentration (µM) from 1 mg/kg Dosing Lung): 0.011 µM and 0.016 µM | concentration at 8 h (Lung, 24 h, 20 mg/kg IV, individual animals, read-out: Concentration (µM) from 20 mg/kg Dosing Lung): 0.718 µM and 0.295 µM and 0.794 µM | concentration at 8 h (Lung, 48 h, 20 mg/kg IV, individual animals, read-out: Concentration (µM) from 20 mg/kg Dosing Lung): 0.36 µM and 0.211 µM and 1.402 µM | half-life (male, CD-1, mouse, blood and tissues (kidney, liver, lung), iv, CD-1 mice IV, dose = c0, matrix = c1 of the line): 10 to 15 h | concentration at 0.25 h (male, CD-1, mouse, blood, intravenous, 1 mg/kg, Blood, 0.25 h, 1 mg/kg IV, individual animals, read-out: Concentration (µM) from 1 mg/kg Dosing Blood): 0.089 µM | concentration at 0.25 h (male, CD-1, mouse, blood, intravenous, 1 mg/kg, Blood, 0.25 h, 1 mg/kg IV, mean, read-out: Concentration (µM) from 1 mg/kg Dosing Blood): 0.095 µM | concentration at 0.5 h (male, CD-1, mouse, blood, intravenous, 1 mg/kg, Blood, 0.5 h, 1 mg/kg IV, individual animals, read-out: Concentration (µM) from 1 mg/kg Dosing Blood): 0.055 µM | concentration at 0.5 h (male, CD-1, mouse, blood, intravenous, 1 mg/kg, Blood, 0.5 h, 1 mg/kg IV, mean, read-out: Concentration (µM) from 1 mg/kg Dosing Blood): 0.055 µM | concentration at 1 h (male, CD-1, mouse, blood, intravenous, 1 mg/kg, Blood, 1 h, 1 mg/kg IV, individual animals, read-out: Concentration (µM) from 1 mg/kg Dosing Blood): 0.027 µM | concentration at 1 h (male, CD-1, mouse, blood, intravenous, 1 mg/kg, Blood, 1 h, 1 mg/kg IV, mean, read-out: Concentration (µM) from 1 mg/kg Dosing Blood): 0.024 µM | concentration at 2 h (male, CD-1, mouse, blood, intravenous, 1 mg/kg, Blood, 2 h, 1 mg/kg IV, individual animals, read-out: Concentration (µM) from 1 mg/kg Dosing Blood): 0.012 µM | concentration at 2 h (male, CD-1, mouse, blood, intravenous, 1 mg/kg, Blood, 2 h, 1 mg/kg IV, mean, read-out: Concentration (µM) from 1 mg/kg Dosing Blood): 0.011 µM | concentration at 12 h (male, CD-1, mouse, blood, intravenous, 20 mg/kg, Blood, 12 h, 20 mg/kg IV, individual animals, read-out: Concentration (µM) from 20 mg/kg Dosing Blood): 0.019 µM | concentration at 12 h (male, CD-1, mouse, blood, intravenous, 20 mg/kg, Blood, 12 h, 20 mg/kg IV, mean, read-out: Concentration (µM) from 20 mg/kg Dosing Blood): 0.017 µM | concentration at 24 h (male, CD-1, mouse, blood, intravenous, 20 mg/kg, Blood, 24 h, 20 mg/kg IV, individual animals, BLOQ <5.1 ng/mL, read-out: Concentration (µM) from 20 mg/kg Dosing Blood): 0.007 µM | concentration at 24 h (male, CD-1, mouse, blood, intravenous, 20 mg/kg, Blood, 24 h, 20 mg/kg IV, mean, read-out: Concentration (µM) from 20 mg/kg Dosing Blood): 0.007 µM | Vd (male, CD-1, mouse, blood, iv, CD-1 mice IV, dose = c0): 20 to 23 L/kg | concentration at 0.083 h (male, CD-1, mouse, in vivo, 1 mg/kg, Blood, 0.083 h, 1 mg/kg IV, individual animals, read-out: Concentration (µM) from 1 mg/kg Dosing Blood): 0.338 µM | concentration at 0.083 h (male, CD-1, mouse, in vivo, 1 mg/kg, Blood, 0.083 h, 1 mg/kg IV, mean, read-out: Concentration (µM) from 1 mg/kg Dosing Blood): 0.365 µM | concentration at 4 h (male, CD-1, mouse, in vivo, 1 mg/kg, Blood, 4 h, 1 mg/kg IV, individual animals, BLOQ <5.1 ng/mL, read-out: Concentration (µM) from 1 mg/kg Dosing Blood): 0.005 µM
